Columns and labels:
[1] = target: T1, Insulin-like growth factor-binding protein 5 (Homo sapiens, UniProt P24593); experiment: Dissociation constant in binding to Insulin-like growth factor binding protein 5 at the residue L73
[2] = target: T1, Insulin-like growth factor-binding protein 5; experiment: Dissociation constant in binding to Insulin-like growth factor binding protein 5 at the residue Y50
[3] = target: T1, Insulin-like growth factor-binding protein 5; experiment: Dissociation constant in BS binding to Insulin-like growth factor binding protein 5 at the residue K91
[4] = target: T1, Insulin-like growth factor-binding protein 5; experiment: Dissociation constant in binding to Insulin-like growth factor binding protein 5 at the residue R87
[5] = target: T1, Insulin-like growth factor-binding protein 5; experiment: Dissociation constant in binding to Insulin-like growth factor binding protein 5 at the residue L81
[6] = target: T1, Insulin-like growth factor-binding protein 5; experiment: Dissociation constant in binding to Insulin-like growth factor binding protein 5 at the residue S85
[7] = target: T1, Insulin-like growth factor-binding protein 5; experiment: Dissociation constant in binding to Insulin-like growth factor binding protein 5 at the residue Y86
[8] = target: T1, Insulin-like growth factor-binding protein 5; experiment: Dissociation constant binding to Insulin-like growth factor binding protein 5 at the residue L-81
[9] = target: T1, Insulin-like growth factor-binding protein 5; experiment: Dissociation constant in PBS binding to Insulin-like growth factor binding protein 5 at the residue Y86
[10] = target: T1, Insulin-like growth factor-binding protein 5; experiment: Dissociation constant in PBS binding to Insulin-like growth factor binding protein 5 at the residue L73
[11] = target: T1, Insulin-like growth factor-binding protein 5; experiment: Dissociation constant in PBS binding to Insulin-like growth factor binding protein 5 at the residue L81
[12] = target: T1, Insulin-like growth factor-binding protein 5; experiment: Dissociation constant in DMSO binding to Insulin-like growth factor binding protein 5 at the residue S85
[13] = target: T1, Insulin-like growth factor-binding protein 5; experiment: Dissociation constant in DMSO binding to Insulin-like growth factor binding protein 5 at the residue L73
[14] = target: T1, Insulin-like growth factor-binding protein 5; experiment: Dissociation constant in DMSO binding to Insulin-like growth factor binding protein 5 at the residue L81
[15] = target: T1, Insulin-like growth factor-binding protein 5; experiment: Dissociation constant in PBS binding to Insulin-like growth factor binding protein 5 at the residue K91
[16] = target: T1, Insulin-like growth factor-binding protein 5; experiment: Dissociation constant in DMSO binding to Insulin-like growth factor binding protein 5 at the residue Y86
[17] = target: T1, Insulin-like growth factor-binding protein 5; experiment: Dissociation constant in DMSO binding to Insulin-like growth factor binding protein 5 at the residue Y50
[18] = target: T1, Insulin-like growth factor-binding protein 5; experiment: Dissociation constant in DMSO binding to Insulin-like growth factor binding protein 5 at the residue R87
[19] = target: T1, Insulin-like growth factor-binding protein 5; experiment: Dissociation constant in PBS binding to Insulin-like growth factor binding protein 5 at the residue S85
[20] = target: T1, Insulin-like growth factor-binding protein 5; experiment: Dissociation constant in DMSO binding to Insulin-like growth factor binding protein 5 at the residue K91
[21] = target: T1, Insulin-like growth factor-binding protein 5; experiment: Dissociation constant in PBS binding to Insulin-like growth factor binding protein 5 at the residue Y50
[22] = target: T1, Insulin-like growth factor-binding protein 5; experiment: Dissociation constant in PBS binding to Insulin-like growth factor binding protein 5 at the residue R87

T1 sequence (P24593 whole entry): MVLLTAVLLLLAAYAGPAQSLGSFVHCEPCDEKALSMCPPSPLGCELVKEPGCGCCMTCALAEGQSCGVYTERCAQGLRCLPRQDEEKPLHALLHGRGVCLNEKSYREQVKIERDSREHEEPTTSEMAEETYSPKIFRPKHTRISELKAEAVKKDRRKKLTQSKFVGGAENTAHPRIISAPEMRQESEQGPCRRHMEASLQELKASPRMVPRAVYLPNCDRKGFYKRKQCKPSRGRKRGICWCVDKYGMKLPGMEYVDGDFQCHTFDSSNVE

C[S+](C)[O-] [DIMETHYL SULFOXIDE]
Kd [1]: 541000 µM | Kd [2]: 648000 µM | Kd [3]: 719000 µM | Kd [4]: 921000 µM | Kd [5]: 610000 µM | Kd [6]: 650000 µM | Kd [7]: 783000 µM

O=C(N[C@H](Cc1ccccc1)C(=O)O)OCC1c2ccccc2-c2ccccc21
Kd [8]: 1080 µM

O=C(N[C@H](Cc1ccc(OP(=O)(O)O)cc1)C(=O)O)OCC1c2ccccc2-c2ccccc21
Kd [9]: 1720 µM | Kd [10]: 2930 µM | Kd [11]: 2880 µM | Kd [12]: 1380 µM | Kd [13]: 1310 µM | Kd [14]: 2780 µM | Kd [8]: 2780 µM | Kd [15]: 2120 µM | Kd [16]: 1900 µM | Kd [17]: 1580 µM | Kd [18]: 1640 µM | Kd [19]: 2330 µM | Kd [20]: 2420 µM | Kd [21]: 1820 µM | Kd [22]: 2360 µM

CC(C)(C)Oc1ccc(C[C@@H](NC(=O)OCC2c3ccccc3-c3ccccc32)C(=O)O)cc1
Kd [8]: 718 µM
